Assay results published in PubChem BioAssay AID602210 (Sanford-Burnham Center for Chemical Genomics, 2012).
Calls of active or inactive are those of the source. The rule behind the calls is not given here.

Test: H9c2 cardiomyoblast viability modulators under 2-DG – cell-based, ATPlite luminescence, rat, set 2, myocardial damage modulator project, dose response (AID 602210)
Details: H9c2 rat cardiomyoblasts, 2-deoxyglucose-induced death, 2 h

SMILES | IC50
CC(C)CCN(C(=O)CNC(=O)c1ccco1)C(C(=O)NC1CCCCC1)c1ccco1 (stereo unspecified) | > 79 µM (inactive)
CCOc1ccc2nc(NC(=O)CN3CCC(n4nnc5cc(F)ccc54)CC3)sc2c1 | 15.9 µM (inactive)
COc1ccc(-c2cc(C(=O)N(C)Cc3ccc(OC)c(OC)c3OC)c3ccccc3n2)cc1OC | 10.2 µM (inactive)
O=C(N/N=C/c1cn(-c2ccccc2)nc1-c1cccnc1)c1ccccc1 | > 79 µM (inactive)
CC(=O)Nc1cccc(-c2cc(NC=O)c3ncc(-c4cccc(C(C)=O)c4)n3c2)c1 | 11 µM (inactive)
COCCn1ccc2c(OCC(=O)Nc3ccccc3OC)cccc2c1=O | 22.1 µM (inactive)
O=C(N/N=C/c1ccccn1)c1cc(-c2cccc3ccccc23)n[nH]1 | 20.7 µM (inactive)
CCOC(=O)C(Cc1ccc(NC(=O)/C(=C/c2ccc(OC(C)=O)cc2)NC(C)=O)cc1)N1C(=O)c2ccccc2C1=O (stereo unspecified) | 15.6 µM (inactive)
COc1cc(C(=O)Nc2nc(-c3cccs3)cs2)cc(OC)c1OC | 8.7 µM
O=C(Cn1nc(C(=O)O)c2ccccc2c1=O)c1c[nH]c2ccccc12 | 40.1 µM (inactive)
CCC(CC)C(=O)Nc1cc(C)c2c(=O)oc3ccccc3c2n1 | 36.4 µM (inactive)
Nc1nonc1-n1nnc(C(=O)N/N=C/c2ccccn2)c1CNc1ccccc1 | 41.4 µM (inactive)
COc1ccc(-c2cc3nc(-c4ccccc4)cc(N4CCN(C(C)=O)CC4)n3n2)cc1 | 16.1 µM (inactive)
COc1ccc(CCn2c(=O)c3cccnc3n(Cc3ccc([N+](=O)[O-])cc3)c2=O)cc1OC | 14.5 µM (inactive)
Cc1nn(C)cc1C(C(=O)NC1CCCCC1)N(C(=O)Cc1cccs1)c1ccc(Cl)cc1 (stereo unspecified) | 29.8 µM (inactive)
CC(=O)Nc1cc(-c2ccc(C(=O)NC3CC3)cc2)cn2c(-c3cccc(C(C)=O)c3)cnc12 | 23.3 µM (inactive)
CC(=O)Nc1cc(-c2ccccc2)cn2c(-c3cccc(C(C)=O)c3)cnc12 | 16 µM (inactive)
COc1ccc(CNn2c(-c3cccs3)nc3ccccc3c2=O)cc1OC | 12.9 µM (inactive)
COc1cccc2cc(-c3cc(=O)oc4ccc(OCC(C)=O)cc34)oc12 | > 79 µM (inactive)
CC(=O)c1ccc(-c2cnc3c(NC=O)cc(-c4cccc(NS(C)(=O)=O)c4)cn23)cc1 | 18 µM (inactive)
O=C(Nc1cccc2cccnc12)c1ccc2sc([C@H]3C[C@H](O)[C@@H](CO)O3)nc2c1 | 24.3 µM (inactive)
Cc1cccc(NC(=O)c2nc[nH]c2C(=O)NCCCCNC(=O)c2[nH]cnc2C(=O)Nc2cccc(C)c2)c1 | 3.32 µM
COc1cccc(/C=N/NC(=O)c2nc(-c3ccccc3)cc(-c3ccccc3)n2)c1 | > 79 µM (inactive)

SMILES | IC50
O=C(c1ccccc1)c1ccc2nc(N3CCN(C(=O)c4ccco4)CC3)c3nncn3c2c1 | 21.9 µM (inactive)
COc1ccc(-c2cc(C(=O)NNC(=O)c3csc(N4CCOCC4)n3)c3ccccc3n2)cc1 | 7.31 µM
Cc1ccc(-c2nnc(NCc3nc4ccccc4[nH]3)c3ccccc23)cc1S(=O)(=O)N1CCOCC1 | 11.3 µM (inactive)
Cc1nn(-c2ccccc2)nc1C(=O)Nc1cccc(C(=O)NC2CC2)c1 | 18.6 µM (inactive)
O=C(CNC(=O)c1nc[nH]c1C(=O)NCc1ccccc1)OCc1ccccc1 | 5.21 µM
CCCNC(=O)c1ccc(N2CCC3(CC2)CC(c2ccccc2)=NO3)c(NC(=O)c2ccco2)c1 | 8.75 µM
COc1ccc2[nH]c(=O)c(CN(CC3CCCO3)S(=O)(=O)c3ccccc3F)cc2c1 (stereo unspecified) | 19.2 µM (inactive)
C/C(=N\Nc1nnc2c3ccccc3n(C)c2n1)c1ccc(C)o1 | 12.3 µM (inactive)
CCCN1C(=O)c2cc(C(=O)Nc3cccc(C(C)=O)c3)ccc2C1Nc1cccc(C(C)=O)c1 (stereo unspecified) | 13.7 µM (inactive)
CCOC(=O)C1CCN(c2cc3c(cc2NC(=O)c2ccc(F)cc2)n(C)c(=O)n3C)CC1 | 28.5 µM (inactive)
c1cncc(-c2nc(NCC3COc4ccccc4O3)c3ccccc3n2)c1 (stereo unspecified) | > 79 µM (inactive)
COCCN1Cc2cccc(C(=O)Nc3cccc(-c4nc5ccccc5[nH]4)c3)c2C1=O | 3.71 µM
CCOC(=O)C1CCN(C(=O)c2ccc3c(=O)n4nc(Nc5ccccc5OC)sc4nc3c2)CC1 | 15.9 µM (inactive)
COc1cc(NC(=O)c2cc3ccccc3cc2OC)ccc1NC(=O)c1cccs1 | 3.78 µM
Cc1ccc(NC(=O)c2cc(-c3cccs3)nc3ccccc23)nc1 | > 79 µM (inactive)
CC(=O)c1cccc(-c2cnc3c(NC=O)cc(-c4cccc(C(=O)N(C)C)c4)cn23)c1 | 39.7 µM (inactive)
COC(=O)c1ccccc1NC(=O)c1nc2nc(C)cc(C)n2n1 | 67.2 µM (inactive)
COc1ccc(N(CC(=O)N/N=C/c2cccs2)S(=O)(=O)c2ccc(OC)c(OC)c2)cc1 | 28 µM (inactive)
COc1ccc(-c2cc(-c3nnc(COC(=O)C4CC4)o3)c3ccccc3n2)cc1OC | 8.35 µM
O=C(NC1CCCCC1)C(c1ccc2ncccc2c1)N(Cc1cccs1)C(=O)c1cccs1 (stereo unspecified) | 27.4 µM (inactive)
Nc1c(C(=O)N/N=C/c2cccnc2)oc2nc(-c3ccccc3)cc(-c3ccco3)c12 | 3.52 µM
COc1ccc(-c2cc(NC=O)c3ncc(-c4ccc(C(C)=O)cc4)n3c2)cn1 | 10.1 µM (inactive)
CCOC(=O)c1cc(-c2nnc(-c3cc(OC)c(OC)c(OC)c3)o2)c(C)nc1C | 3.44 µM

SMILES | IC50
CC(=O)Nc1ccc(Nc2nc(-c3sc(NC(C)=O)nc3C)cs2)cc1 | 18.8 µM (inactive)
CC1Nc2ncnc(N3CCN(c4ccccc4)CC3)c2N(Cc2ccc(Br)cc2)C1=O (stereo unspecified) | > 79 µM (inactive)
CC(=O)Nc1cc(C)nn1-c1nc2ccccc2s1 | > 79 µM (inactive)
COc1cc(NC(=O)c2ccco2)c(C(=O)OCC(=O)c2c[nH]c3ccccc23)cc1OC | 6.43 µM
Cc1nc(SCC(=O)N2CCN(c3ccccc3)CC2)c2oc3ccccc3c2n1 | 25.8 µM (inactive)
COc1ccc(OC)c(NC(=O)c2sc3ncnc(N4CCN(c5ccccn5)CC4)c3c2C)c1 | 12.1 µM (inactive)
COc1ccccc1OCC(=O)Nc1cccc(-c2nnc(-c3ccco3)o2)c1 | > 79 µM (inactive)
COC(=O)c1ccc2c(=O)[nH]c(COC(=O)c3[nH]c(C)c(C(C)=O)c3C)nc2c1 | 9.12 µM
COC(=O)c1ccccc1NC(=O)c1ccc2nccnc2c1 | 48.8 µM (inactive)
CNC(=O)COC(=O)/C=C/c1cn(-c2ccccc2)nc1-c1ccc(C)o1 | 14.6 µM (inactive)
CC12C=CC(=O)CC1CCC1C2CCC2(C)C(O)C(O)CC12 (stereo unspecified) | 21 µM (inactive)
COc1cc(/C=C/c2nc(-c3ccccc3O)n[nH]2)cc(OC)c1OC | > 79 µM (inactive)
O=C(NCCc1ccccc1Cl)c1ccc2nc3ccccc3c(=O)n2c1 | 28.7 µM (inactive)
COc1cccc(C(=O)Nc2cc(C)c3c(=O)oc4ccccc4c3n2)c1 | > 79 µM (inactive)
COc1ccc(-c2nn(-c3ccccc3)cc2C(=O)Nc2nccs2)cc1 | 16.4 µM (inactive)
O=c1c2ccccc2nc2c3ccccc3c(NCCO)nn12 | 70.6 µM (inactive)
COc1cc(-c2cnc3c(NC=O)cc(-c4ccsc4)cn23)cc(OC)c1OC | 6.13 µM
CSc1nc2ncc3c(n2n1)CC1c2ccccc2CCN1C3=O (stereo unspecified) | 51.3 µM (inactive)
C#CCOc1nc(Nc2cccc([N+](=O)[O-])c2)nc(OCC#C)n1 | 24.9 µM (inactive)
CC(C)(C)OC(=O)NCc1ccc(NC(=O)c2nc[nH]c2C(=O)NCCCCCCNC(=O)c2[nH]cnc2C(=O)Nc2ccc(CNC(=O)OC(C)(C)C)cc2)cc1 | > 79 µM (inactive)
COc1cccc(OC)c1C(=O)Nc1cc(C)nn1-c1nc2ccccc2[nH]1 | 4.52 µM
Cc1cc(C)c2c(N)c(C(=O)N/N=C/c3cccnc3)sc2n1 | 25.5 µM (inactive)
COC(=O)c1ccccc1NC(=O)/C=C/c1cc(OC)c(OC)c(OC)c1 | > 79 µM (inactive)

SMILES | IC50
Cc1ccc(NC(=O)c2nc[nH]c2C(=O)NCCCCCCNC(=O)c2[nH]cnc2C(=O)Nc2ccc(C)cc2)cc1 | 0.24 µM
COc1ccc(-c2cc3nc(-c4ccccc4)cc(N4CCN(C(=O)c5ccoc5)CC4)n3n2)cc1 | 7.21 µM
CC(=O)c1ccc(N2CCN(C(=O)c3cc(-c4cccnc4)nc4ccc(Br)cc34)CC2)cc1 | 15.7 µM (inactive)
COc1cc(Nc2nc3ccccc3n3nnnc23)cc(OC)c1OC | 8.82 µM
O=C(COC(=O)c1ccccc1C(=O)OCC(=O)NCCc1c[nH]c2ccccc12)NCCc1c[nH]c2ccccc12 | 9.24 µM
O=C(/C=C\c1cn(-c2ccccc2)nc1-c1ccc2c(c1)OCCO2)N1CCOCC1 | > 79 µM (inactive)
Nc1c(C(=O)N/N=C/c2cccnc2)oc2nc(-c3ccco3)cc(-c3ccco3)c12 | 1.63 µM
O=C(CSc1ccc2nnc(-c3ccc(F)cc3)n2n1)N1CCCc2ccccc21 | 16.8 µM (inactive)
COc1ccnc(Oc2ccccc2)c1C(=O)N/C=N/OCc1ccc(F)cc1Cl | 8.39 µM
COc1cc(/C=N/NC(=O)c2cccnc2)ccc1OS(=O)(=O)c1cc(C)ccc1C | 18.5 µM (inactive)
COc1ccc(NC(=O)c2cc3c(=O)n(C)c4ccccc4c3n2C)cc1OC | > 79 µM (inactive)
CCOc1ccc(C(C(=O)NCC2CCCO2)N(C(=O)c2snc(C(N)=O)c2N)c2ccccc2F)cc1 (stereo unspecified) | 24 µM (inactive)
COc1ccc(-n2c(/C=C/c3ccc(O)cc3)nc3ccccc3c2=O)cc1 | 18.5 µM (inactive)
COc1cccc(CN2CCN(C(=O)c3cc(-c4cccnc4)nc4ccc(C)cc34)CC2)c1 | 48.8 µM (inactive)
CC(=O)c1cccc(NC(=O)Nc2ccc3c(c2)N(C)C(=O)CS3)c1 | > 79 µM (inactive)
CCC(c1nnnn1Cc1ccccc1)N1CCC(n2c(=O)[nH]c3ccccc32)CC1 (stereo unspecified) | 1.98 µM
COc1cc(C(=O)Nc2ccc(NC(=O)c3ccco3)nc2)cc(OC)c1OC | 38.5 µM (inactive)
O=C(CNC(=O)c1[nH]cnc1C(=O)NC(c1ccccc1)c1ccccc1)OCc1ccccc1 | 22.3 µM (inactive)
COc1cccc(CN(C)C(=O)C(Cc2ccccc2)NC(=O)c2ccccc2)c1OC (stereo unspecified) | 20.8 µM (inactive)
COc1cc(/C=C(\C#N)c2nc3ccc(C)cc3[nH]2)c([N+](=O)[O-])cc1OC | 26.4 µM (inactive)
COc1cc(/C=C(\C#N)C(=O)Nc2ccccc2F)ccc1OCCN1CCOCC1 | 41.2 µM (inactive)
CCCCn1nc(NC(=O)c2cccs2)c2cc3cc(OC)ccc3nc21 | > 79 µM (inactive)
